# According to patent publication US6710066B2, “Photochemotherapeutic method using 5-aminolevulinic acid and other precursors of endogenous porphyrins” (priority 1989, dated 2004):
# How the values were obtained:
# P. yoelii = test: ALA-induced fluorescence within erythrocytes parasitized by P. yoelii, mice given ALA; settings: ALA injected into infected mice
# [1] = following intravenous injection; occasionally more than two months; cited from earlier work
# [2] = very large doses; cited from earlier work
Structure (SMILES),PpIX accumulation in non-infected erythrocytes and leukocytes (P. yoelii),PpIX accumulation in plasmodia within erythrocytes (P. yoelii),persistence of photosensitizing amount of porphyrin in the skin [1],effect on motor nerve conduction velocity [2]
NCC(=O)CCC(=O)O [5-aminolevulinic acid (ALA)],no such accumulation of protoporphyrin,accumulation of fluorescing and photosensitizing concentrations of protoporphyrin within metabolically active parasites,–,–
"CC1=C(CCC(=O)O)c2cc3[nH]c(cc4nc(cc5[nH]c(cc1n2)c(C)c5C(C)O)C(C)=C4C(C)O)c(C)c3CCC(=O)O (stereo not shown) [HpIX, Hematoporphyrin IX, reference compound]",–,–,at least two weeks,transient decrease in motor nerve conduction velocity
